`CCCCc1nc2c(N)nc3ccccc3c2n1NC(C)C` [Example 1, 2-Butyl-N^1-isopropyl-1H-imidazo[4,5-c]quinoline-1,4-diamine] registered a melting point of 157.1 to 158.7 °C.

`CCCCc1nc2c(N)nc3ccccc3c2n1NCc1ccccc1` [Example 2, N^1-Benzyl-2-butyl-1H-imidazo[4,5-c]quinoline-1,4-diamine]: the melting point was in the range of 159.3 to 160.5 °C.

In the case of `Cc1nc2c(N)nc3ccccc3c2n1NC(C)C` [Example 3, N^1-Isopropyl-2-methyl-1H-imidazo[4,5-c]quinoline-1,4-diamine], the melting point was in the range of 227 to 229 °C.

In the case of `CCOCc1nc2c(N)nc3ccccc3c2n1NCc1ccccc1` [Example 4, N^1-Benzyl-2-ethoxymethyl-1H-imidazo[4,5-c]quinoline-1,4-diamine], the melting point was 152 to 155 °C.

Compound `CCOCc1nc2c(N)nc3ccccc3c2n1NC(C)C` [Example 5, 2-Ethoxymethyl-N^1-isopropyl-1H-imidazo[4,5-c]quinoline-1,4-diamine] registered a melting point of 162 to 164 °C.

`CCOCc1nc2c(N)nc3ccccc3c2n1NC1CCCCC1` [Example 6, N^1-Cyclohexyl-2-(ethoxymethyl)-1H-imidazo[4,5-c]quinoline-1,4-diamine] returned a melting point of 143 to 145 °C.

`CCOCc1nc2c(N)nc3ccccc3c2n1N(C)C` [Example 7, N^1,N^1-Dimethyl-2-ethoxymethyl-1H-imidazo[4,5-c]quinoline-1,4-diamine] displayed a melting point of 213 to 215 °C.

For the compound `CCOCc1nc2c(N)nc3ccccc3c2n1NC(CC)CC` [Example 9, 2-Ethoxymethyl-N^1-(1-ethylpropyl)-1H-imidazo[4,5-c]quinoline-1,4-diamine], the melting point was in the range of 125 to 128 °C.

`CCOCc1nc2c(N)nc3ccccc3c2n1NCC(C)C` [Example 10, 2-Ethoxymethyl-N^1-isobutyl-1H-imidazo[4,5-c]quinoline-1,4-diamine]: the melting point fell in the range of 137 to 140 °C.

The compound `CCOCc1nc2c(N)nc3c(c2n1NC(C)C)CCCC3` [Example 11, 2-Ethoxymethyl-N^1-isopropyl-6,7,8,9-tetrahydro-1H-imidazo[4,5-c]quinoline-1,4-diamine] came in with a melting point of 144 to 146 °C.

For the compound `CCOCc1nc2c(N)nc3ccccc3c2n1NCCC(C)C` [Example 12, 2-Ethoxymethyl-N^1-(3-methylbutyl)-1H-imidazo[4,5-c]quinoline-1,4-diamine], the melting point was in the range of 129 to 132 °C.

Compound `CCOCc1nc2c(N)nc3ccccc3c2n1N1CCOCC1` [Example 13, 2-Ethoxymethyl-1-(morpholin-4-yl)-1H-imidazo[4,5-c]quinolin-4-amine] displayed a melting point of 223 to 224 °C.

In the case of `CCOCc1nc2c(N)nc3ccccc3c2n1NCCCNS(C)(=O)=O` [Example 14, N-{3-[(4-Amino-2-ethoxymethyl-1H-imidazo[4,5-c]quinolin-1-yl)amino]propyl}methanesulfonamide], the melting point fell in the range of 148 to 150 °C.

With `CCOCc1nc2c(N)nc3ccccc3c2n1NCCCNC(=O)Nc1ccccc1` [Example 15, 1-{3-[(4-Amino-2-ethoxymethyl-1H-imidazo[4,5-c]quinolin-1-yl)amino]propyl}-3-phenylurea], the melting point fell in the range of 177 to 179 °C.

In the case of `CCCc1nc2c(N)nc3ccccc3c2n1NC(C)C` [Example 16, N^1-Isopropyl-2-propyl-1H-imidazo[4,5-c]quinoline-1,4-diamine], the melting point fell in the range of 181 to 184 °C.

Regarding `CCCc1nc2c(N)nc3c(c2n1NC(C)C)CCCC3` [Example 17, N^1-Isopropyl-2-propyl-6,7,8,9-tetrahydro-1H-imidazo[4,5-c]quinoline-1,4-diamine], the melting point lay in the range of 162 to 164 °C.

The compound `CCCc1nc2c(N)nc3cc(-c4cccnc4)ccc3c2n1NC(C)C` [Example 19, N^1-Isopropyl-2-propyl-7-(pyridin-3-yl)-1H-imidazo[4,5-c]quinoline-1,4-diamine] yielded a melting point of 218 to 219 °C.

Consider `CCOCc1nc2c(N)nc3cc(OCc4ccccc4)ccc3c2n1NC(C)C` [Example 20, 7-Benzyloxy-2-ethoxymethyl-N^1-isopropyl-1H-imidazo[4,5-c]quinoline-1,4-diamine], for which the melting point lay in the range of 194 to 196 °C.

`CCOCc1nc2c(N)nc3ccccc3c2n1NCCCNC(=O)N1CCOCC1` [Example 23, [3-(4-Amino-2-ethoxymethyl-1H-imidazo[4,5-c]quinolin-1-ylamino)propyl]morpholine-4-carboxamide] registered a melting point of 158 to 160 °C.

Compound `CCOCc1nc2c(N)nc3ccccc3c2n1NCCCNC(=O)C1CCCC1` [Example 24, N-(3-{[4-Amino-2-(ethoxymethyl)-1H-imidazo[4,5-c]quinolin-1-yl]amino}propyl)cyclopentanecarboxamide] registered a melting point of 75 to 77 °C.

`CCOCc1nc2c(N)nc3ccccc3c2n1NCCCNC(=O)NC(C)C` [Example 25, 1-(3-{[4-Amino-2-(ethoxymethyl)-1H-imidazo[4,5-c]quinolin-1-yl]amino}propyl)-3-isopropylurea] showed a melting point of 174 to 177 °C.

`CCOCc1nc2c(N)nc3c(c2n1NCCCNC(=O)NC(C)C)CCCC3` [Example 26, 1-(3-{[4-Amino-2-(ethoxymethyl)-6,7,8,9-tetrahydro-1H-imidazo[4,5-c]quinolin-1-yl]amino}propyl)-3-isopropylurea]: the melting point fell in the range of 185 to 187 °C.

Compound `CCCc1nc2c(N)nc3cc(-c4cccc(NS(C)(=O)=O)c4)ccc3c2n1NC(C)C` [Example 27, N-{3-[4-Amino-1-(isopropylamino)-2-propyl-1H-imidazo[4,5-c]quinolin-7-yl]phenyl}methanesulfonamide] came in with a melting point of 217 to 227 °C.

As to `CCOCc1nc2c(N)nc3c(c2n1NCCCNC(=O)N1CCOCC1)CCCC3` [Example 28, N-(3-{[4-Amino-2-(ethoxymethyl)-6,7,8,9-tetrahydro-1H-imidazo[4,5-c]quinolin-1-yl]amino}propyl)morpholine-4-carboxamide], the melting point fell in the range of 152 to 154 °C.

On to `CCCc1nc2c(N)nc3cc(-c4cccc(C(=O)N5CCOCC5)c4)ccc3c2n1NC(C)C` [Example 29, N^1-Isopropyl-7-[3-(morpholin-4-ylcarbonyl)phenyl]-2-propyl-1H-imidazo[4,5-c]quinoline-1,4-diamine], for which the melting point is 274 to 276 °C.

`CCOCc1nc2c(N)nc3cc(OCCCNS(C)(=O)=O)ccc3c2n1NC(C)C` [Example 30, N-(3-{[4-Amino-2-(ethoxymethyl)-1-(isopropylamino)-1H-imidazo[4,5-c]quinolin-7-yl]oxy}propyl)methanesulfonamide]: the melting point lay in the range of 181 to 183 °C.

For the compound `CCCc1nc2c(N)nc3cc(-c4ccccc4)ccc3c2n1NC(C)C` [Example 31, N^1-Isopropyl-7-phenyl-2-propyl-1H-imidazo[4,5-c]quinoline-1,4-diamine], the melting point was 217 to 220 °C.

Take `CCOCc1nc2c(N)nc3ccccc3c2n1NCCCNC(=O)C(C)C` [Example 32, N-(3-{[4-Amino-2-(ethoxymethyl)-1H-imidazo[4,5-c]quinolin-1-yl]amino}propyl)-2-methylpropanamide]: the melting point fell in the range of 108 to 110 °C.

`CCOCc1nc2c(N)nc3c(c2n1NCCCNC(=O)C(C)C)CCCC3` [Example 33, N-(3-{[4-Amino-2-(ethoxymethyl)-6,7,8,9-tetrahydro-1H-imidazo[4,5-c]quinolin-1-yl]amino}propyl)-2-methylpropanamide] registered a melting point of 163 to 165 °C.

`CCOCc1nc2c(N)nc3ccccc3c2n1NCCCNC(C)=O` [Example 34, N-(3-{[4-Amino-2-(ethoxymethyl)-1H-imidazo[4,5-c]quinolin-1-yl]amino}propyl)acetamide] displayed a melting point of 178 to 181 °C.

On to `CCCc1nc2c(N)nc3cc(CCc4cccnc4)ccc3c2n1NC(C)C` [Example 35, N^1-Isopropyl-2-propyl-7-(2-pyridin-3-ylethyl)-1H-imidazo[4,5-c]quinoline-1,4-diamine], for which the melting point fell in the range of 100 to 103 °C.

As to `CCc1nc2c(N)nc3ccccc3c2n1NC(C)C` [Example 36, 2-Ethyl-N^1-isopropyl-1H-imidazo[4,5-c]quinoline-1,4-diamine], the melting point was 245 to 247 °C.

The compound `CCOCc1nc2c(N)nc3c(c2n1NCCCNC(C)=O)CCCC3` [Example 37, N-(3-{[4-Amino-2-(ethoxymethyl)-6,7,8,9-tetrahydro-1H-imidazo[4,5-c]quinolin-1-yl]amino}propyl)acetamide] had a melting point of 198 to 200 °C.

For the compound `CCNC(=O)NCCCNn1c(COCC)nc2c(N)nc3ccccc3c21` [Example 38, 1-(3-{[4-Amino-2-(ethoxymethyl)-1H-imidazo[4,5-c]quinolin-1-yl]amino}propyl)-3-ethylurea], the melting point was in the range of 138 to 141 °C.

Take `CCNC(=O)NCCCNn1c(COCC)nc2c(N)nc3c(c21)CCCC3` [Example 39, 1-(3-{[4-Amino-2-(ethoxymethyl)-6,7,8,9-tetrahydro-1H-imidazo[4,5-c]quinolin-1-yl]amino}propyl)-3-ethylurea]: the melting point was 189 to 191 °C.

The compound `CCc1nc2c(N)nc3ccccc3c2n1NCCCNC(C)=O` [Example 40, N-{3-[(4-Amino-2-ethyl-1H-imidazo[4,5-c]quinolin-1-yl)amino]propyl}acetamide] displayed a melting point of 167 to 169 °C.

`CCc1nc2c(N)nc3c(c2n1NCCCNC(C)=O)CCCC3` [Example 41, N-{3-[(4-Amino-2-ethyl-6,7,8,9-tetrahydro-1H-imidazo[4,5-c]quinolin-1-yl)amino]propyl}acetamide] displayed a melting point of 175 to 176 °C.

Compound `CC(C)Nn1c(CO)nc2c(N)nc3ccccc3c21` [Example 42, [4-Amino-1-(isopropylamino)-1H-imidazo[4,5-c]quinolin-2-yl]methanol] came in with a melting point of 228 to 229 °C.

Broadly, the melting point is the temperature of the solid-liquid transition.
